Experimental findings from ChEMBL document CHEMBL3864142, “Allicin-inspired thiolated fluoroquinolones as antibacterials against ESKAPE pathogens” (2016) are described below.

Values after ≈ are worked out from the molar mass of the structure shown.

One assay deals with Enterococcus faecalis. Nature of the assay: Antibacterial activity against vancomycin-susceptible Enterococcus faecalis ATCC 29212 at 10 uM by disc diffusion method. The assay is classed as functional. As to conditions: read-out: DIZ. Background: In agar diffusion tests the substance spreads into inoculated agar from a disc or well.
Another assay has as its system Klebsiella pneumoniae. Nature of the assay: Antibacterial activity against ESBL-producer Klebsiella pneumoniae K6 700603 at 10 uM by disc diffusion method. In kind it is functional. As to conditions: read-out: DIZ.
The test system of another assay is Enterococcus faecium. Kind of assay: Antibacterial activity against vancomycin-resistant Enterococcus faecium ATCC 700221 at 10 uM by disc diffusion method. In kind it is functional. The following applies: read-out: DIZ.
The test system of assay [1] is Staphylococcus aureus. Nature of the assay: Antibacterial activity against methicillin-resistant Staphylococcus aureus BAA-1747 at 10 uM by disc diffusion method. In kind it is functional. As to conditions: read-out: DIZ.
The next assay has as its system Enterobacter cloacae. Kind of assay: Antibacterial activity against Enterobacter cloacae ATCC 23355 at 10 uM by disc diffusion method. In kind it is functional. As to conditions: read-out: DIZ.
The subject of another assay is Pseudomonas aeruginosa. Kind of assay: Antibacterial activity against Pseudomonas aeruginosa ATCC 15442 at 10 uM by disc diffusion method. The assay is classed as functional. As to conditions: read-out: DIZ.
The test system of assay [2] is Staphylococcus epidermidis. Kind of assay: Antibacterial activity against Staphylococcus epidermidis ATCC 14990 at 10 uM by disc diffusion method. The assay is classed as functional. The following applies: read-out: DIZ.
For assay [3], the system named is Staphylococcus aureus. Kind of assay: Antibacterial activity against methicillin-susceptible Staphylococcus aureus ATCC 29213 at 10 uM by disc diffusion method. The following applies: read-out: DIZ. In kind it is functional.
Assay [4] relates to Acinetobacter baumannii. Nature of the assay: Antibacterial activity against ciprofloxacin-resistant Acinetobacter baumannii BAA-1605 at 10 uM by disc diffusion method. The assay is classed as functional. As to conditions: read-out: DIZ.
Assay [5] can be described thus: Antibacterial activity against vancomycin-intermediate resistant Staphylococcus aureus Mu50 ATCC 700699 at 10 uM by disc diffusion method. In kind it is functional, Staphylococcus aureus subsp. aureus Mu50. The following applies: read-out: DIZ.
The nature of assay [6]: Antibacterial activity against Bacillus anthracis Sterne 34F2 at 10 uM by disc diffusion method. The assay is classed as functional, Bacillus anthracis str. Sterne. The following applies: read-out: DIZ.
Assay [7] deals with Acinetobacter baumannii. Kind of assay: Antibacterial activity against Acinetobacter baumannii ATCC 19606 at 10 uM by disc diffusion method. In kind it is functional. The following applies: read-out: DIZ.
Assay [8] deals with Staphylococcus aureus. Kind of assay: Ratio of MBC to MIC for vancomycin-intermediate resistant Staphylococcus aureus Mu50 ATCC 700699. In kind it is functional.
For assay [9], the system named is Staphylococcus aureus. Nature of the assay: Ratio of MBC to MIC for methicillin-susceptible Staphylococcus aureus ATCC 29213. The assay is classed as functional.
Assay [10] is described as follows: Bactericidal activity against vancomycin-intermediate resistant Staphylococcus aureus Mu50 ATCC 700699 by broth microdilution method. In kind it is functional, Staphylococcus aureus subsp. aureus Mu50. In general terms: Broth dilution looks for growth in wells or tubes with falling amounts of substance.
Assay [11] deals with Staphylococcus aureus. Kind of assay: Bactericidal activity against methicillin-susceptible Staphylococcus aureus ATCC 29213 by broth microdilution method. In kind it is functional.
The subject of assay [12] is Staphylococcus aureus. Kind of assay: Bactericidal activity against methicillin-resistant Staphylococcus aureus BAA-1747 by broth microdilution method. The assay is classed as functional.
Assay [13] in a line: Antibacterial activity against vancomycin-intermediate resistant Staphylococcus aureus Mu50 ATCC 700699 by broth microdilution method. In kind it is functional, Staphylococcus aureus subsp. aureus Mu50.
Assay [14] relates to Staphylococcus aureus. Nature of the assay: Antibacterial activity against methicillin-susceptible Staphylococcus aureus ATCC 29213 by broth microdilution method. In kind it is functional.
Assay [15] deals with Staphylococcus aureus. Kind of assay: Antibacterial activity against methicillin-resistant Staphylococcus aureus BAA-1747 by broth microdilution method. In kind it is functional.
Assay [16] concerns Staphylococcus aureus. Kind of assay: Ratio of MBC to MIC for methicillin-resistant Staphylococcus aureus BAA-1747. The assay is classed as functional.

As to `CCCCSN1CCN(c2cc3c(cc2F)c(=O)c(C(=O)O)cn3C2CC2)CC1`, the zone of inhibition at 10 µM in the assay on Enterococcus faecalis was found to be 23 mm; in the assay on Klebsiella pneumoniae it was 21 mm; with Enterococcus faecium it was 0 mm; in the assay on Staphylococcus aureus [1], 20 mm; in the assay with Enterobacter cloacae, 25 mm; in the assay with Pseudomonas aeruginosa, 28 mm. The zone of inhibition at 10 µM worked out at 34 mm in assay [2]; 22 mm in the assay on Staphylococcus aureus [3]; 0 mm with Acinetobacter baumannii [4]; 11 mm in assay [5]; 37 mm in assay [6]; 22 mm in the assay with Acinetobacter baumannii [7].
For the molecule `O=C(O)c1cn(C2CC2)c2cc(N3CCN(Sc4ccc([N+](=O)[O-])cc4)CC3)c(F)cc2c1=O`, the zone of inhibition at 10 µM in the assay on Enterococcus faecalis was 25 mm; with Klebsiella pneumoniae, 21 mm; with Enterococcus faecium it was 8 mm; in the assay with Staphylococcus aureus [1] it was 24 mm; in the assay on Enterobacter cloacae, 23 mm; in the assay on Pseudomonas aeruginosa, 27 mm. Moreover, the zone of inhibition at 10 µM in assay [2] came to 36 mm; with Staphylococcus aureus [3] it was 29 mm; with Acinetobacter baumannii [4], 0 mm; in assay [5], 11 mm; in assay [6], 32 mm; in the assay with Acinetobacter baumannii [7], 23 mm.
For the molecule `CC(C)C(C)SN1CCN(c2cc3c(cc2F)c(=O)c(C(=O)O)cn3C2CC2)CC1` (stereo unspecified), the zone of inhibition at 10 µM came out at 25 mm in the assay with Enterococcus faecalis; 26 mm with Klebsiella pneumoniae; 0 mm with Enterococcus faecium; 23 mm in the assay with Staphylococcus aureus [1]; 29 mm with Enterobacter cloacae; 31 mm in the assay on Pseudomonas aeruginosa. Besides, the zone of inhibition at 10 µM in [2] was 29 mm; in the assay with Staphylococcus aureus [3], 28 mm; in the assay on Acinetobacter baumannii [4], 0 mm; in [5], 9 mm; in assay [6] it was 32 mm; with Acinetobacter baumannii [7], 26 mm.
Regarding `CCCCCCSN1CCN(c2cc3c(cc2F)c(=O)c(C(=O)O)cn3C2CC2)CC1`, the zone of inhibition at 10 µM in the assay on Enterococcus faecalis was determined as 15 mm; in the assay with Klebsiella pneumoniae, 16 mm; in the assay on Enterococcus faecium it was 8 mm; in the assay on Staphylococcus aureus [1], 18 mm; in the assay with Enterobacter cloacae it was 19 mm; in the assay with Pseudomonas aeruginosa, 23 mm. Besides, the zone of inhibition at 10 µM stood at 26 mm in assay [2]; 18 mm in the assay on Staphylococcus aureus [3]; 0 mm in the assay on Acinetobacter baumannii [4]; 9 mm in assay [5]; 30 mm in assay [6]; 15 mm in the assay on Acinetobacter baumannii [7].
Consider `CN[C@H](CC(C)C)C(=O)N[C@H]1C(=O)N[C@@H](CC(N)=O)C(=O)N[C@H]2C(=O)N[C@H]3C(=O)N[C@H](C(=O)N[C@H](C(=O)O)c4cc(O)cc(O)c4-c4cc3ccc4O)[C@H](O)c3ccc(c(Cl)c3)Oc3cc2cc(c3O[C@@H]2O[C@H](CO)[C@@H](O)[C@H](O)[C@H]2O[C@H]2C[C@](C)(N)[C@H](O)[C@H](C)O2)Oc2ccc(cc2Cl)[C@H]1O` [VANCOMYCIN], for which the Ratio with Staphylococcus aureus [8], in the assay with Staphylococcus aureus [9] and with Staphylococcus aureus [16] was 1 each time. The MBC (usually the lowest tested concentration that kills the bacteria rather than only halting them) was determined as 0.78 µM (≈ 1.13 µg/mL) in [10], 0.1 µM (≈ 0.145 µg/mL) in the assay with Staphylococcus aureus [11] and 0.1 µM (≈ 0.145 µg/mL) in the assay on Staphylococcus aureus [12]. The MIC (in general, the least concentration at which growth counts as inhibited) came to 0.78 µM (≈ 1.13 µg/mL) in assay [13], 0.1 µM (≈ 0.145 µg/mL) in the assay with Staphylococcus aureus [14] and 0.1 µM (≈ 0.145 µg/mL) against Staphylococcus aureus [15].
In the case of `CSN1CCN(c2cc3c(cc2F)c(=O)c(C(=O)O)cn3C2CC2)CC1`, the zone of inhibition at 10 µM with Enterococcus faecalis was found to be 21 mm; in the assay on Klebsiella pneumoniae, 22 mm; with Enterococcus faecium it was 0 mm; in the assay on Staphylococcus aureus [1], 23 mm; with Enterobacter cloacae it was 23 mm; in the assay with Pseudomonas aeruginosa, 29 mm. Further, the zone of inhibition at 10 µM was found to be 33 mm in [2]; 24 mm with Staphylococcus aureus [3]; 10 mm in the assay on Acinetobacter baumannii [4]; 11 mm in assay [5]; 36 mm in assay [6]; 23 mm in the assay with Acinetobacter baumannii [7].
As for `CCC(C)SN1CCN(c2cc3c(cc2F)c(=O)c(C(=O)O)cn3C2CC2)CC1` (stereo unspecified), the zone of inhibition at 10 µM was 22 mm in the assay with Enterococcus faecalis; 20 mm with Klebsiella pneumoniae; 8 mm in the assay on Enterococcus faecium; 23 mm with Staphylococcus aureus [1]; 23 mm in the assay with Enterobacter cloacae; 27 mm in the assay with Pseudomonas aeruginosa. In addition, the zone of inhibition at 10 µM in [2] came to 32 mm; with Staphylococcus aureus [3] it was 24 mm; in the assay on Acinetobacter baumannii [4], 0 mm; in assay [5], 11 mm; in assay [6], 35 mm; with Acinetobacter baumannii [7], 22 mm.
`O=C(O)c1cn(C2CC2)c2cc(N3CCN(Sc4ccc(Cl)cc4)CC3)c(F)cc2c1=O`: the zone of inhibition at 10 µM in the assay on Enterococcus faecalis is 20 mm; with Klebsiella pneumoniae it was 20 mm; in the assay on Enterococcus faecium, 8 mm; in the assay with Staphylococcus aureus [1], 17 mm; in the assay with Enterobacter cloacae, 22 mm; with Pseudomonas aeruginosa, 26 mm. Further, the zone of inhibition at 10 µM in [2] was 29 mm; with Staphylococcus aureus [3] it was 21 mm; in the assay on Acinetobacter baumannii [4] it was 0 mm; in assay [5], 12 mm; in assay [6] it was 34 mm; in the assay with Acinetobacter baumannii [7], 20 mm.
Turning to `O=C(O)c1cn(C2CC2)c2cc(N3CCN(Sc4ccccc4[N+](=O)[O-])CC3)c(F)cc2c1=O`, the zone of inhibition at 10 µM in the assay with Enterococcus faecalis stood at 20 mm; in the assay with Klebsiella pneumoniae, 9 mm; in the assay on Enterococcus faecium, 0 mm; with Staphylococcus aureus [1], 19 mm; with Enterobacter cloacae it was 19 mm; in the assay on Pseudomonas aeruginosa it was 9 mm. Also, the zone of inhibition at 10 µM in assay [2] stood at 23 mm; in the assay with Staphylococcus aureus [3], 18 mm; in the assay on Acinetobacter baumannii [4] it was 0 mm; in [5], 0 mm; in assay [6] it was 27 mm; in the assay with Acinetobacter baumannii [7], 19 mm.
Regarding `O=C(O)c1cn(C2CC2)c2cc(N3CCN(Sc4ccccc4)CC3)c(F)cc2c1=O`, the zone of inhibition at 10 µM with Enterococcus faecalis came to 20 mm; in the assay with Klebsiella pneumoniae, 20 mm; in the assay with Enterococcus faecium, 10 mm; with Staphylococcus aureus [1], 22 mm; in the assay on Enterobacter cloacae it was 26 mm; in the assay on Pseudomonas aeruginosa, 27 mm. The zone of inhibition at 10 µM in [2] is 23 mm; in the assay with Staphylococcus aureus [3] it was 21 mm; with Acinetobacter baumannii [4] it was 0 mm; in assay [5], 12 mm; in [6] it was 36 mm; with Acinetobacter baumannii [7], 23 mm.
With `CC(C)SN1CCN(c2cc3c(cc2F)c(=O)c(C(=O)O)cn3C2CC2)CC1`, the zone of inhibition at 10 µM is 23 mm with Enterococcus faecalis; 23 mm in the assay with Klebsiella pneumoniae; 0 mm in the assay on Enterococcus faecium; 23 mm with Staphylococcus aureus [1]; 25 mm in the assay on Enterobacter cloacae; 31 mm in the assay on Pseudomonas aeruginosa. The zone of inhibition at 10 µM in assay [2] was found to be 34 mm; in the assay on Staphylococcus aureus [3], 21 mm; with Acinetobacter baumannii [4], 0 mm; in assay [5], 10 mm; in assay [6] it was 36 mm; in the assay with Acinetobacter baumannii [7], 23 mm.
Turning to `CCSN1CCN(c2cc3c(cc2F)c(=O)c(C(=O)O)cn3C2CC2)CC1`, the zone of inhibition at 10 µM with Enterococcus faecalis worked out at 25 mm; with Klebsiella pneumoniae it was 23 mm; in the assay on Enterococcus faecium it was 0 mm; in the assay with Staphylococcus aureus [1], 22 mm; in the assay with Enterobacter cloacae, 25 mm; with Pseudomonas aeruginosa it was 32 mm. In addition, the zone of inhibition at 10 µM came out at 32 mm in assay [2]; 24 mm with Staphylococcus aureus [3]; 0 mm in the assay on Acinetobacter baumannii [4]; 11 mm in [5]; 37 mm in assay [6]; 24 mm with Acinetobacter baumannii [7].
